Patent US20050038035A1, “Heterocyclic amide compounds as apolipoprotein b inhibitors” (priority 2001, published 2005)

Experiments:
Apo B secretion = assay: Test 1: Measurement of Inhibition of Apo B Secretion (HepG2 cells, ELISA of medium); type: cell-based; conditions: Homo sapiens, 10^−8 M test compound, 15-hour incubation, 0.1% DMSO treated cells as controls
Experimental: HepG2 cells were seeded in Eagles medium containing 10% fetal calf serum (FCS) at a density of 30000 cells/well in 96-well plates and allowed to grow for 3 days before treatment. At this time, the medium was replaced with fresh medium containing 0.1% dimethyl sulfoxide (DMSO) and the indicated concentrations of a test compound. After 15-hour incubation, the amount of Apo B and Apo AI accumulated in the media was determined by ELISA.
The assay was carried out at ambient temperature. A flat bottomed micro ELISA plate (manufactured by Nunc) was coated with an anti Apo B monoclonal antibody solution ([…] in 0.05% carbonate buffer, pH 9.6).by adding the antibody solution at a volume of 100 μl per well. After 1-hour incubation on a plate mixer, the unbound materials were removed by washing the well 3 times with a washing buffer (phosphate buffered saline, pH 7.2 containing 0.1% bovine serum albumin and 0.05% Tween-20). Then 20 μl of […] and 100 μl of a solution of peroxidase coupled anti Apo B antibody were added. After 1-hour incubation on a plate mixer, washing was performed 3 times to remove the unbound materials. A freshly prepared substrate solution (2.5 mg/ml ortho-phenylene diamine and 0.018% H2O2 in 0.11 M Na2HPO4-0.044 M sodium citrate buffer, pH 5.4) at a volume of 200 μl was then added to each well. After 20-minute incubation, the enzyme reaction was terminated by adding 50 μl of 0.5 M sulfuric acid. Absorbance of each well was determined at 490 nm using a microplate reader. Apo B concentration was calculated from a standard curve generated from purified Apo B standard that was run in parallel in the same plate. Inhibition of Apo B secretion by the test compound is calculated taking 0.1% DMSO treated cells as controls.
Measurement of Apo AI was performed similar to that of Apo B, except for diluting the sample 11-fold with a dilution buffer (phosphate buffered saline, pH 7.2 containing 0.5% bovine serum albumin and 0.05% Tween-20).
Apo B secretion inhibitors are identified as compounds that decrease Apo B secretion without affecting the secretion of Apo AI.

ddY-mice [1] = assay: Test 2: Lipids Lowering Effect on ddY-Mice (plasma cholesterol and triglyceride); type: in vivo; conditions: male ddY-mice, oral, 3.2 mg/kg in 0.5% methylcellulose, relative to baseline; for Cholesterol (% of 0 hr) 2 hr: plasma total-cholesterol 2 hours after administration; for Triglyceride (% of 0 hr) 2 hr: plasma triglyceride 2 hours after administration
Experimental: Male ddY-mice were housed in temperature- and humidity-controlled rooms and fed with laboratory chow. The animals were randomized according to their body weight and deprived of food just before the experiment. A blood sample (baseline blood sample) was collected from the retro orbital venous plexus before administration of the test drug, and then the animals were orally dosed with the test drug in a vehicle (aqueous solution of 0.5% methylcellulose). Blood samples were drawn at 2 hours after drug administration for the measurement of cholesterol and triglyceride.
Plasma total-cholesterol and plasma triglyceride were determined by conventional enzyme methods using commercially available kits. The cholesterol CII-Test Wako (Wako Pure Chemical Industries, Ltd.) was used for the measurement of cholesterol, and the triglyceride E-test Wako (Wako Pure Chemical Industries, Ltd.) was used for the measurement of triglyceride.
Lipids lowering effects were shown in percent relative to the baseline level (level at 0 hr).

ddY-mice [2] = assay: Test 3: Lipid Lowering Effect on ddY-Mice (olive oil load, plasma TG elevation); type: in vivo; conditions: male ddY-mice fasted about 16 hours, oral, 0.32 mg/kg in olive oil (10 ml/kg), 2 hours; (TG increase in drug treated group/TG increase in control group)×100
Experimental: Male ddY-mice were housed in temperature- and humidity-controlled rooms and fed with laboratory chow. The animals were randomized according to their body weight and food was deprived about 16 hours before experiment. Baseline blood sample was collected from the retro orbital venous plexus then the animals were orally dosed with drugs in olive oil (10 ml/kg). For control group, 10 ml/kg of olive oil was loaded orally. Blood samples were drawn at 2 hours after drug administration for the measurement of triglyceride (TG) elevation. Plasma TG was determined by conventional enzyme method (The triglyceride E-test Wako).
Lipid lowering effects were shown in percent of the TG increase in drug treated group, relative to the TG increase in control group. Lipid lowering effect (%)=(TG increase in drug treated group/TG increase in control group)×100

Cc1ccc(-c2ccc(Cl)cc2)c(C(=O)Nc2ccc(NCCc3ccccn3)cc2)c1 [Example 31, 4′-chloro-4-methyl-N-(4-{[2-(2-pyridinyl)ethyl]amino}phenyl)-1,1′-biphenyl-2-carboxamide]
inhibition at 0.01 µM (Apo B secretion): 96% | Cholesterol (% of 0 hr) 2 hr (ddY-mice [1]): 86 % of 0 hr | Triglyceride (% of 0 hr) 2 hr (ddY-mice [1]): 36 % of 0 hr

Cc1ccc(C(=O)Nc2ccc(NCCc3ccccn3)cc2)c(-c2ccc(C(F)(F)F)cc2)c1 [Example 44, 5-methyl-N-(4-{[2-(2-pyridinyl)ethyl]amino}phenyl)-4′-(trifluoromethyl)-1,1′-biphenyl-2-carboxamide]
inhibition at 0.01 µM (Apo B secretion): 83% | Cholesterol (% of 0 hr) 2 hr (ddY-mice [1]): 80 % of 0 hr | Triglyceride (% of 0 hr) 2 hr (ddY-mice [1]): 25 % of 0 hr

Cc1ccc(C(=O)Nc2ccc(NCCc3ccccn3)cc2)c(-c2ccc(F)cc2)c1 [Example 46, 4′-fluoro-5-methyl-N-(4-{[2-(2-pyridinyl)ethyl]amino}phenyl)-1,1′-biphenyl-2-carboxamide]
inhibition at 0.01 µM (Apo B secretion): 94% | Cholesterol (% of 0 hr) 2 hr (ddY-mice [1]): 79 % of 0 hr | Triglyceride (% of 0 hr) 2 hr (ddY-mice [1]): 19 % of 0 hr

Cc1ccc(-c2ccc(C)cc2C(=O)Nc2ccc(NCCc3cccc(N)n3)cc2)cc1 [Example 53, N-(4-{[2-(6-amino-2-pyridinyl)ethyl]amino}phenyl)-4,4′-dimethyl-1,1′-biphenyl-2-carboxamide]
inhibition at 0.01 µM (Apo B secretion): 84% | Cholesterol (% of 0 hr) 2 hr (ddY-mice [1]): 71 % of 0 hr | Triglyceride (% of 0 hr) 2 hr (ddY-mice [1]): 17 % of 0 hr

Cc1ccc(-c2ccc(Cl)cc2)c(C(=O)Nc2ccc(NCCc3cccc(N)n3)cc2)c1 [Example 55, N-(4-{[2-(6-amino-2-pyridinyl)ethyl]amino}phenyl)-4′-chloro-4-methyl-1,1′-biphenyl-2-carboxamide]
inhibition at 0.01 µM (Apo B secretion): 86% | Cholesterol (% of 0 hr) 2 hr (ddY-mice [1]): 75 % of 0 hr | Triglyceride (% of 0 hr) 2 hr (ddY-mice [1]): 16 % of 0 hr

Cc1ccc(-c2ccc(F)cc2)c(C(=O)Nc2ccc(NCCc3cccc(N)n3)cc2)c1 [Example 56, N-(4-{[2-(6-amino-2-pyridinyl)ethyl]amino}phenyl)-4′-fluoro-4-methyl-1,1′-biphenyl-2-carboxamide]
inhibition at 0.01 µM (Apo B secretion): 93% | Cholesterol (% of 0 hr) 2 hr (ddY-mice [1]): 81 % of 0 hr | Triglyceride (% of 0 hr) 2 hr (ddY-mice [1]): 31 % of 0 hr

N#Cc1cccc(CN2CCN(c3ccc(NC(=O)C4=C(c5ccc(C(F)(F)F)cc5)CCCC4)cn3)CC2)c1 [Example 212, N-{6-[4-(3-cyanobenzyl)-1-piperazinyl]-3-pyridinyl}-2-[4-(trifluoromethyl)phenyl]-1-cyclohexene-1-carboxamide]
inhibition at 0.01 µM (Apo B secretion): 84% | Lipid lowering effect (%) (ddY-mice [2]): 55%

O=C(Nc1ccc(NCCc2ccccn2)cc1)C1=C(c2ccc(C(F)(F)F)cc2)CCCCC1 [Example 232, N-(4-{[2-(2-pyridinyl)ethyl]amino}phenyl)-2-[4-(trifluoromethyl)phenyl]-1-cycloheptene-1-carboxamide]
inhibition at 0.01 µM (Apo B secretion): 93% | Lipid lowering effect (%) (ddY-mice [2]): 29%
